# Reference: paper PMC12141164, “Phase-1 study of vamotinib (PF-114), a 3rd generation BCR::ABL1 tyrosine kinase-inhibitor, in chronic myeloid leukaemia” (Annals of Hematology, 2025)
# “And” between values parts separate entries of the source, which are not always exact repeats. Equal values may be shown once. Marks after values point to notes of the source that are not given here.
# System: BCR::ABL1 positive CML
# Assay: Phase-1 study: haematological, cytogenetic and molecular response
# Format: in vivo, human
# Conditions: for Best response achieved on PF-114: individual patients
# Description: Haematological response evaluations were done on the first day of each cycle of therapy; molecular response on the first day of cycles 1, 2, 4, 7, 10, 13 and then every three months; cytogenetic response – at screening and on the first days of cycles 4, 7, 13 and every three months thereafter, provided that there was no major molecular response.
# Cytogenetic response was assessed by differential staining of chromosomes and if uninformative, by fluorescent in situ hybridization (FISH). Mutations in BCR::ABL1 were assessed by Sanger and next generation sequencing (NGS). Sanger sequencing was done at each center; NGS analyses were done in the laboratory of Prof. Susan Branford, University of Adelaide. Discordances were resolved as described in Table S2. Molecular response was assessed using the ratio of BCR::ABL1 to ABL1 measured according to the IS [9].
# [1] = Subjects after ponatinib (N = 5)
structure (smiles),measurement,setting,value
Cc1ccc(C(=O)Nc2ccc(CN3CCN(C)CC3)c(C(F)(F)F)c2)cc1C#Cc1nnc2ccccn12 [vamotinib],Subjects with loss of MCyR,Cohort 5 500 mg N=3,0 no. (%)
same,Subjects with loss of MMR,Cohort 5 500 mg N=3,0 no. (%)
same,CCyR achieved at treatment,Cohort 6 600 mg N=6,0 no. (%)
same,CCyR by 6 months,Cohort 6 600 mg N=6,0 no. (%)
same,CCyR by 12 months,Cohort 6 600 mg N=6,0 no. (%)
same,CHR achieved at treatment,Cohort 6 600 mg N=6,2 (33) no. (%)
same,CHR by the 3 months,Cohort 6 600 mg N=6,2 (33) no. (%)
same,CHR by the 6th months,Cohort 6 600 mg N=6,2 (33) no. (%)
same,CHR by the 12th months,Cohort 6 600 mg N=6,2 (33) no. (%)
same,MCyR achieved at treatment,Cohort 6 600 mg N=6,0 no. (%)
same,MCyR by 6 months,Cohort 6 600 mg N=6,0 no. (%)
same,MCyR by 12 months,Cohort 6 600 mg N=6,0 no. (%)
same,MMR achieved at treatment,Cohort 6 600 mg N=6,0 no. (%)
same,MMR by 6 months,Cohort 6 600 mg N=6,0 no. (%)
same,MMR by 12 months,Cohort 6 600 mg N=6,0 no. (%)
same,MMR by 24 months,Cohort 6 600 mg N=6,0 no. (%)
same,Subjects with loss of CCyR,Cohort 6 600 mg N=6,0 no. (%)
same,Subjects with loss of CHR,Cohort 6 600 mg N=6,0 no. (%)
same,Subjects with loss of MCyR,Cohort 6 600 mg N=6,0 no. (%)
same,Subjects with loss of MMR,Cohort 6 600 mg N=6,0 no. (%)
same,CCyR achieved at treatment,Cohort 7 750 mg N=4,0 no. (%)
same,CCyR by 6 months,Cohort 7 750 mg N=4,0 no. (%)
same,CCyR by 12 months,Cohort 7 750 mg N=4,0 no. (%)
same,CHR achieved at treatment,Cohort 7 750 mg N=4,1 (25) no. (%)
same,CHR by the 3 months,Cohort 7 750 mg N=4,1 (25) no. (%)
same,CHR by the 6th months,Cohort 7 750 mg N=4,1 (25) no. (%)
same,CHR by the 12th months,Cohort 7 750 mg N=4,1 (25) no. (%)
same,MCyR achieved at treatment,Cohort 7 750 mg N=4,0 no. (%)
same,MCyR by 6 months,Cohort 7 750 mg N=4,0 no. (%)
same,MCyR by 12 months,Cohort 7 750 mg N=4,0 no. (%)
same,MMR achieved at treatment,Cohort 7 750 mg N=4,0 no. (%)
same,MMR by 6 months,Cohort 7 750 mg N=4,0 no. (%)
same,MMR by 12 months,Cohort 7 750 mg N=4,0 no. (%)
same,MMR by 24 months,Cohort 7 750 mg N=4,0 no. (%)
same,Subjects with loss of CCyR,Cohort 7 750 mg N=4,0 no. (%)
same,Subjects with loss of CHR,Cohort 7 750 mg N=4,0 no. (%)
same,Subjects with loss of MCyR,Cohort 7 750 mg N=4,0 no. (%)
same,Subjects with loss of MMR,Cohort 7 750 mg N=4,0 no. (%)
same,CCyR achieved at treatment,Cohort 8 300 mg N=9,5 no. (%) and 5 (56) no. (%)
same,CCyR by 6 months,Cohort 8 300 mg N=9,3 (33) no. (%)
same,CCyR by 12 months,Cohort 8 300 mg N=9,4 (44) no. (%)
same,CHR achieved at treatment,Cohort 8 300 mg N=9,4 (100) no. (%)
same,CHR by the 3 months,Cohort 8 300 mg N=9,4 (100) no. (%)
same,CHR by the 6th months,Cohort 8 300 mg N=9,4 (100) no. (%)
same,CHR by the 12th months,Cohort 8 300 mg N=9,4 (100) no. (%)
same,MCyR achieved at treatment,Cohort 8 300 mg N=9,6 no. (%) and 6 (86) no. (%)
same,MCyR by 6 months,Cohort 8 300 mg N=9,4 (57) no. (%)
same,MMR achieved at treatment,Cohort 8 300 mg N=9,4 no. (%) and 4 (44) no. (%)
same,MMR by 6 months,Cohort 8 300 mg N=9,3 (33) no. (%)
same,MMR by 12 months,Cohort 8 300 mg N=9,3 (33) no. (%)
same,MMR by 24 months,Cohort 8 300 mg N=9,4 (44) no. (%)
same,Subjects with loss of CCyR,Cohort 8 300 mg N=9,1 (20) no. (%)
same,Subjects with loss of CHR,Cohort 8 300 mg N=9,2 (50) no. (%)
same,Subjects with loss of MCyR,Cohort 8 300 mg N=9,1 (17) no. (%)
same,Subjects with loss of MMR,Cohort 8 300 mg N=9,0 no. (%)
same,CCyR,[1],none and 0/5^*
same,MCyR,[1],none and 0/5
same,MMR,[1],0/5^*
same,MMR,Subjects with BCR::ABL1^T315I (N = 16),0/16
same,CCyR achieved at treatment,Total N=51,10 no. (%) and 10 (20) no. (%)
same,CCyR by 6 months,Total N=51,6 (12) no. (%)
same,CCyR by 12 months,Total N=51,7 (14) no. (%)
same,CHR achieved at treatment,Total N=51,14 no. (%) and 14 (47) no. (%)
same,CHR by the 3 months,Total N=51,11 (37) no. (%)
same,CHR by the 6th months,Total N=51,11 (37) no. (%)
same,CHR by the 12th months,Total N=51,14 (47) no. (%)
same,MCyR achieved at treatment,Total N=51,14 no. (%) and 14 (32) no. (%)
same,MCyR by 6 months,Total N=51,10 (23) no. (%)
same,MCyR by 12 months,Total N=51,11 (25) no. (%)
same,MMR achieved at treatment,Total N=51,7 no. (%) and 7 (14) no. (%)
same,MMR by 6 months,Total N=51,4 (8) no. (%)
same,MMR by 12 months,Total N=51,4 (8) no. (%)
same,MMR by 24 months,Total N=51,7 (14) no. (%)
same,Subjects with loss of CCyR,Total N=51,2 (20) no. (%)
same,Subjects with loss of CHR,Total N=51,8 no. (%) and 8 (57) no. (%)
same,Subjects with loss of MCyR,Total N=51,2 (14) no. (%)
same,subjects achieving deep molecular response MR4.5,dose of 300 mg,One
same,Median time to achieving a CHR,in vivo,3.8 months
same,median time to MMR,in vivo,"5,6 months"
same,median time to achievement of CCyR,in vivo,5.6 months
same,median time to achievement of MCyR,in vivo,4.5 months
same,Best response achieved on PF-114,dose cohort 50 mg,CHR
same,Best response achieved on PF-114,"dose cohort 100 mg, listed as PF-114",MCyR and MMR
same,Best response achieved on PF-114,dose cohort 125 mg,MR 4.5
same,Best response achieved on PF-114,"dose cohort 200 mg, listed as PF-114",CHR and MCyR and CCyR and MR 4
same,Best response achieved on PF-114,"dose cohort 300 mg, listed as PF-114",MMR and CHR and MR 4 and CCyR and MR 4.5
same,Best response achieved on PF-114,"dose cohort 400 mg, listed as PF-114",CHR and CCyR and MCyR
same,Best response achieved on PF-114,dose cohort 600 mg,CHR
same,Best response achieved on PF-114,dose cohort 750 mg,CHR
same,time to CHR,"one subject, myeloid variant M0 blast crisis, i(17) and BCR::ABL1^T315I",5 weeks
same,duration of CCyR,subjects with BCR::ABL1^T315I,2.8 months
same,duration of MCyR,subjects with BCR::ABL1^T315I,2.8 months
